According to patent publication US7534809B2, “Phospho-indoles as HIV inhibitors” (priority 2004, dated 2009):
≈ marks a conversion by molar mass, not a printed value. Like-named read-outs stand apart in the source and are kept apart here. Marks after values point to notes of the source that are not given here.

Assays:
[1] = Human plasma protein binding, equilibrium dialysis; format: in vitro ADME; conditions: pooled human plasma, 37° C., about 6 hours, 1 μM drug, read-out: Protein binding (human plasma) % Free
Protocol: The human plasma protein binding was determined using the Equilibrium Dialysis method. Dialysis was conducted with pooled human plasma at 37° C. for approximately 6 hours at a drug concentration of 1 μM. At the end of the dialysis, buffer samples from the buffer-side of the dialysis cell were collected and analyzed by LC/MS/MS for free drug concentration. For NNRTIs, a lower protein binding is more desirable.

[2] = Metabolic stability in monkey liver microsomes; format: in vitro ADME; conditions: 10 μM, 1 mg/mL microsomes, 37° C.
Description: (§1) The metabolic stability assay is to evaluate the stability of test compound in biological matrices. Data are useful in terms of understanding and predicting the elimination mechanisms of the test compound. CYP450-dependent metabolism of drugs can also vary widely from one species to another. Evaluating in vitro metabolism of a drug by liver microsomes from multiple species allows the comparison of metabolism in animal species to that of humans. This can help identify the most relevant animal model for PK and toxicology studies. The metabolic stability of a test compound was evaluated in vitro in liver microsomes of the rat, dog, monkey, and human. 10 μM of the test compound was pre-incubated for 5 min at 37° C. with 1 mg/mL liver microsomes in 0.1M Tris buffer, pH 7.4 containing 5 mM MgCl2 and 0.1 mM EDTA. Following pre-incubation, NADPH (final concentration of 3 mM) was added to start the reaction and samples incubated for 0 and 1 or 2 hours. After terminating the reaction, the supernatant was analyzed by HPLC-UV or LC/MS/MS for the disappearance of the parent and formation of metabolite(s). The %parent remaining was the peak area ratio of the 1 or 2 hr sample to the time 0 sample. In general, less metabolism (higher % parent values) is more desirable.

[3] = Metabolic stability in rat liver microsomes; format: in vitro ADME; conditions: 10 μM, 1 mg/mL microsomes, 37° C.
Description: as §1

CYP3A4 = target: T1, CYP3A4 (Homo sapiens, UniProt P08684); experiment: CYP450 inhibition, CYP3A4/BFC screening kit; format: in vitro ADME
T1 construct: purchased BD Biosciences
T1 sequence (P08684 whole entry): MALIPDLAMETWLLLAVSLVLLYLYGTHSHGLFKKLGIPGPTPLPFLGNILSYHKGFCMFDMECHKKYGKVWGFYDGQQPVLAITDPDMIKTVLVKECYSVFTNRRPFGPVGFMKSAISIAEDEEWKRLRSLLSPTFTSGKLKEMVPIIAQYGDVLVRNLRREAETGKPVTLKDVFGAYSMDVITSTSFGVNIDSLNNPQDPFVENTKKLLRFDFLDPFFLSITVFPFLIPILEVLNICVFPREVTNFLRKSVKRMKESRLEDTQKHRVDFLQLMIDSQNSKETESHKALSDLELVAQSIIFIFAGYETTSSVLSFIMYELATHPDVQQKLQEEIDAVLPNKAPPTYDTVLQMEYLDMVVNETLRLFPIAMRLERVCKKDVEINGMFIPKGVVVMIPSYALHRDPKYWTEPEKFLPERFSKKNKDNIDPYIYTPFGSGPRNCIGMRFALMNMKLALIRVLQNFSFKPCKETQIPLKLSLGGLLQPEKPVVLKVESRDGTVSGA
Description: (§2) In vitro CYP450 inhibition screening allows for the prediction of potential drug-drug interactions. […] Potency and rank order of the inhibition can be assessed by determination of the IC50 values for a particular isozyme.
(§3) CYP3A4 inhibition was screened using the CYP3A4/BFC high throughput inhibitor screening kit (BD Biosciences), CYP2D6 inhibition was screened using the CYP2D6/AMMC high throughput inhibitor screening kit (BD Biosciences), and CYP2C9 inhibition was screened using the P450-Glo™ Assay kit (Promega).

[4] = PK and oral bioavailability in the rat; format: in vivo, Sprague-Dawley rats; conditions: IV, 1.0 mg/kg
Protocol: (§4) The pharmacokinetics of a test compound was evaluated in Sprague-Dawley rats and Beagle dogs. A typical PK study involved dosing of 2 to 3 animals via a single IV bolus injection at 1 mg/kg and another 3 animals via a single oral gavage at 5 mg/kg. Blood samples were collected at various time points over a 24-hr period. Plasma was separated and analyzed for test compound and its metabolite(s) by LC/MS/MS. PK parameters were calculated from the plasma concentration—time profile using a noncompartmental method. Oral bioavailability (F) was calculated based on dose-normalized AUC values from oral and IV administration. Higher oral bioavailability values are better.

[5] = PK and oral bioavailability in the dog; format: in vivo, Beagle dogs; conditions: for half-life: PEG400, read-out: T½ (converted)
Protocol: as §4

[6] = Metabolic stability in human liver microsomes; format: in vitro ADME; conditions: 10 μM, 1 mg/mL microsomes, 37° C.
Description: as §1

CYP2D6 = target: T2, CYP2D6 (Homo sapiens, UniProt P10635); experiment: CYP450 inhibition, CYP2D6/AMMC screening kit; format: in vitro ADME
T2 construct: purchased BD Biosciences
T2 sequence (P10635 whole entry): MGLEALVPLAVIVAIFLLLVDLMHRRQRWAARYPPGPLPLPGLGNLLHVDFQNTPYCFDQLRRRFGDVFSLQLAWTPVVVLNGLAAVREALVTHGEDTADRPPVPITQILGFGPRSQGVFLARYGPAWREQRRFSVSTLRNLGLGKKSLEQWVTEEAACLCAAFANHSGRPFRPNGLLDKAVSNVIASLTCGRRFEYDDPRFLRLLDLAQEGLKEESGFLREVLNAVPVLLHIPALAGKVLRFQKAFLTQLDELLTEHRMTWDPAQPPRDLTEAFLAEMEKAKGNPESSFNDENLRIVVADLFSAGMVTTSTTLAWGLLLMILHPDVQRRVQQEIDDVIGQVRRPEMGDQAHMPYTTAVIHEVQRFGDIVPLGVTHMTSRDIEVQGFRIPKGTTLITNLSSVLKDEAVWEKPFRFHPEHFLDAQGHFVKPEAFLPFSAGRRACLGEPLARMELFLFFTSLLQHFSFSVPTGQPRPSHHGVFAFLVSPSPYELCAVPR
Description: as §2, §3

[7] = pH dependent aqueous solubility, shake-flask method; format: physicochemical; conditions: aqueous solution, thermodynamic from solid, saturated concentration 1 mM
Protocol: The aqueous solubility of each compound was determined by the conventional shake-flask method at a saturated concentration of 1 mM. The flask (vial) was shaken for 3 hrs at ambient temperature, and then centrifuged. The supernatant was analyzed by HPLC with UV detection for solubility determination. In general, a higher aqueous solubility is more desirable for drug candidates.

[8] = Metabolic stability in dog liver microsomes; format: in vitro ADME; conditions: 10 μM, 1 mg/mL microsomes, 37° C.
Description: as §1

CYP2C9 = target: T3, CYP2C9 (Homo sapiens, UniProt P11712); experiment: CYP450 inhibition, CYP2C9 P450-Glo assay kit; format: in vitro ADME
T3 construct: purchased Promega
T3 sequence (P11712 whole entry): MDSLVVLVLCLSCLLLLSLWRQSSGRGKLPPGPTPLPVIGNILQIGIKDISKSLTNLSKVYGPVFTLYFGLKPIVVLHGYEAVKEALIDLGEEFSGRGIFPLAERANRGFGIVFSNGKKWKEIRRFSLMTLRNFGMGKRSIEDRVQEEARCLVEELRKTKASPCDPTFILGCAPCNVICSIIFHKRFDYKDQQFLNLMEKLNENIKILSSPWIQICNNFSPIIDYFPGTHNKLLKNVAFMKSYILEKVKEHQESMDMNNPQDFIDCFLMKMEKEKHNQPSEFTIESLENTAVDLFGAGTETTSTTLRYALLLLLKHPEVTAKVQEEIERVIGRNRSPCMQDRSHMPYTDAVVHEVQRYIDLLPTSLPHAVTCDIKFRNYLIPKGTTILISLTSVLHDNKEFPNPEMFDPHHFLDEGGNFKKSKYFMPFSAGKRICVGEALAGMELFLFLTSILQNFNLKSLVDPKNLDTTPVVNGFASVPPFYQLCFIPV
Description: as §2, §3

[9] = tested on: mutant forms such as K103N/M184V/NAMS and K103N/Y181C/M184V/NAMS; experiment: MDRC4 and CNDO cell-based assays versus other mutant forms; design: species or system HIV; conditions: Human immunodeficiency virus 1, read-out: EC50 values
[10] = Beagle, plasma, IV, 1.0 mg/kg, PEG400
[11] = Beagle, plasma, PO, 5.0 mg/kg, PEG400
[12] = pH 1, simulated gastric fluid, pH1, ambient temperature, read-out: Aqueous solubility pH1
[13] = pH 3, aqueous buffer, pH3, ambient temperature, read-out: Aqueous solubility pH3
[14] = pH 7, aqueous buffer, pH7, ambient temperature, read-out: Aqueous solubility pH7
[15] = pH 9, aqueous buffer, pH9, ambient temperature, read-out: Aqueous solubility pH9

In the case of COP(=O)(C1=C(C(=O)NCc2ccncc2)N=C2C=CC(Cl)=CC21)c1cc(C)cc(C)c1 (stereo not drawn) [Compound N], the fraction unbound at 6 h, 1 μM [1] is reported as 0.002, the “Metabolic stability in liver microsomes % Parent after 1 hr incubation, Monkey” value ([2]; 1 hr (footnote *)) is reported as 1%* and the “Metabolic stability in liver microsomes % Parent after 1 hr incubation, Rat” value ([3]; 1 hr (footnote *)) is reported as 1%*. For the same compound, the IC50 (CYP3A4) was 660 nM, the AUCinf/Dose ([4]; PEG400) was 125.9 and the CI ([4]; PEG400) was 133.2 mL/min/kg. For the same compound, the AUC(0-inf) ([4]; Sprague-Dawley, plasma, PEG400) was 126 ng·h/mL, the AUC(0-t) ([4]; Sprague-Dawley, plasma, PEG400) was 108 ng·h/mL and the Cmax ([4]; Sprague-Dawley, plasma, PEG400) was 119 ng/mL. For the same compound, the half-life ([4]; Sprague-Dawley, plasma, PEG400, read-out: T½ (converted)) was 54 min, the Vd ([4]; Sprague-Dawley, plasma, PEG400, read-out: Vss) was 9.59 L/kg and the AUC(0-inf) [5, 10] was 970 ng·h/mL. The AUC(0-t) [5, 10] was 924 ng·h/mL, the Cmax [5, 10] was 407 ng/mL and the half-life ([5]; Beagle, plasma, IV, 1.0 mg/kg) was 252 min. It also gave a Vd ([5]; Beagle, plasma, IV, 1.0 mg/kg, PEG400, read-out: Vss) of 4.08 L/kg, an AUC(0-inf) [5, 11] of 139 ng·h/mL and an AUC(0-t) [5, 11] of 116 ng·h/mL. It also gave a Cmax [5, 11] of 60.9 ng/mL, a Tmax [5, 11] of 42 min and a half-life ([5]; Beagle, plasma, PO, 5.0 mg/kg) of 168 min. It also gave an AUCinf/Dose ([5]; IV, 1.0 mg/kg, PEG400) of 970.1, a CI ([5]; IV, 1.0 mg/kg, PEG400) of 1192.3 mL/kg/h and an AUCinf/Dose ([5]; PO, 5.0 mg/kg, PEG400) of 27.7. The F ([5]; PO, 5.0 mg/kg, PEG400, oral bioavailability) was 2.9%, the “Metabolic stability in liver microsomes % Parent after 1 hr incubation, Human” value ([6]; 1 hr (footnote *)) was 22%* and the IC50 (CYP2D6) was 2040 nM. The solubility at 3 h [7, 12] was over 1000 µM, the solubility at 3 h [7, 13] was 231 µM (≈ 108 µg/mL) and the solubility at 3 h [7, 14] was 2.1 µM (≈ 0.983 µg/mL). The solubility at 3 h [7, 15] was 1.7 µM (≈ 0.795 µg/mL) and the “Metabolic stability in liver microsomes % Parent after 1 hr incubation, Dog” value ([8]; 1 hr (footnote *)) was 24%*.

With COP(=O)(C1=C(C(=O)NCc2ccncc2)N=C2C=CC(Cl)=C(F)C21)c1cc(C)cc(C)c1 (stereo not drawn) [Compound O] the fraction unbound at 6 h, 1 μM [1] was 0.009, the “Metabolic stability in liver microsomes % Parent after 2 hrs, Monkey” value [2] was 1% and the “Metabolic stability in liver microsomes % Parent after 2 hrs, Rat” value [3] was 2%. For the same compound, the IC50 (CYP3A4) was 810 nM, the IC50 (CYP2C9) was 5.35 µM and the “Metabolic stability in liver microsomes % Parent after 2 hrs, Human” value [6] was 15%. It also gave an IC50 (CYP2D6) of 1350 nM, a solubility at 3 h [7, 12] of 820 µM (≈ 398 µg/mL) and a solubility at 3 h [7, 13] of 590 µM (≈ 287 µg/mL). For the same compound, the solubility at 3 h [7, 14] was 9.1 µM (≈ 4.42 µg/mL), the solubility at 3 h [7, 15] was 10.1 µM (≈ 4.91 µg/mL) and the “Metabolic stability in liver microsomes % Parent after 2 hrs, Dog” value [8] was 29%.

With COP(=O)(C1=C(C(=O)NCc2ccncc2)N=C2C=CC(Cl)=CC21)c1cc(C)cc(F)c1 (stereo not drawn) [Compound P] the fraction unbound at 6 h, 1 μM [1] was under 0.005, the “Metabolic stability in liver microsomes % Parent after 2 hrs, Monkey” value [2] was 3% and the “Metabolic stability in liver microsomes % Parent after 2 hrs, Rat” value [3] was 0%. For the same compound, the IC50 (CYP3A4) was 770 nM, the IC50 (CYP2C9) was 1.68 µM and the “Metabolic stability in liver microsomes % Parent after 2 hrs, Human” value [6] was 3%. For the same compound, the IC50 (CYP2D6) was 2010 nM, the solubility at 3 h [7, 12] was over 1000 µM and the solubility at 3 h [7, 13] was 724 µM (≈ 342 µg/mL). For the same compound, the solubility at 3 h [7, 14] was 24 µM (≈ 11.3 µg/mL), the solubility at 3 h [7, 15] was 33.8 µM (≈ 15.9 µg/mL) and the “Metabolic stability in liver microsomes % Parent after 2 hrs, Dog” value [8] was 20%.

In the case of CCOC(=O)c1c(P(=O)(OCC)c2ccccc2)c2cc(Cl)ccc2n1S(=O)(=O)c1ccccc1 (stereo not drawn) [Example 3, Ethyl 5-chloro-3-[ethoxy(phenyl)phosphoryl]-1-(phenylsulfonyl)-1H-indole-2-carboxylate], the EC50 [9] is reported as 1.3 to 447 nM.
